Among the data in US20190134005A1 (BioMarin Pharmaceutical Inc., priority 2016, published 2019) are IC50 values, retold here.

The target of the first experiment is T1, human CGT (Homo sapiens, UniProt Q16880).
T1 sequence (Q16880 21-541): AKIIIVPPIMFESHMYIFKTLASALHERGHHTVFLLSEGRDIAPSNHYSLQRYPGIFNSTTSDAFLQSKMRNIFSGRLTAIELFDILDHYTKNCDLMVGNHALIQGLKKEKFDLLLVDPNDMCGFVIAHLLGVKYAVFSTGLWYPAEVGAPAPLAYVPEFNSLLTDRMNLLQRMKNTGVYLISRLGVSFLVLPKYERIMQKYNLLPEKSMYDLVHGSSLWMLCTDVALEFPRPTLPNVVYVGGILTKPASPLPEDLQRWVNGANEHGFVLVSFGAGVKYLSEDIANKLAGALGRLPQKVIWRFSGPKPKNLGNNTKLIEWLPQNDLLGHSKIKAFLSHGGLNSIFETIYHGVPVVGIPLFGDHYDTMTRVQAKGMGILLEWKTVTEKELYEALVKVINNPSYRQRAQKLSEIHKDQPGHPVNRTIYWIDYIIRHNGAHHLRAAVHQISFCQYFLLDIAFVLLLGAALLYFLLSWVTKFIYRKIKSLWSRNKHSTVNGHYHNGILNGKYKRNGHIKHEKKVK
Kind of experiment: Assay 1: CGT Enzymatic Assay (RapidFire/MS/MS, 0.01% Tween 80). Type of experiment: biochemical. As to conditions: Table 1, Compounds of Formula (I) and Formula (II); CGT enzymatic assay, C6-NBD-dihydro-galactosylceramide readout; read-out: IC50.
For the compound `O=C1N(c2ccc(Cl)cc2)C2(CC(F)(F)C2)C(O)(c2cccc(OC(F)(F)F)c2)N1c1ccc(Cl)cc1` (centres unmarked) [Compound 304, 5,7-bis(4-chlorophenyl)-2,2-difluoro-8-hydroxy-8-(3-(trifluoromethoxy)phenyl)-5,7-diazaspiro[3.4]octan-6-one], the IC50 – broadly, the concentration at which inhibition is half-maximal – was less than 1000 nM.
As for `COC[C@]1(C)N(c2ccc(Cl)cc2)C(=O)N(c2ccc(Cl)cc2)[C@]1(O)c1cccc(OC(F)(F)F)c1` [Compound 296-2, (4S,5S)-1,3-bis(4-chlorophenyl)-4-hydroxy-5-(methoxymethyl)-5-methyl-4-(3-(trifluoromethoxy)phenyl)imidazolidin-2-one], the IC50 is less than 1000 nM.
Take `Cc1ccc(N2C(=O)N(c3ccc(Cl)cc3)C(O)(c3cccc(OC(F)(F)F)c3)C23COC3)cc1` (centres unmarked) [Example 311, 7-(4-chlorophenyl)-8-hydroxy-5-(p-tolyl)-8-(3-(trifluoromethoxy)phenyl)-2-oxa-5,7-diazaspiro[3.4]octan-6-one]: the IC50 is less than 1000 nM.

Still in this experiment, the particulars now being: Table 1, Compounds of Formula (I) and Formula (II); CGT enzymatic assay; read-out: IC50.
As to `C[C@@]1(c2cccc(Cl)c2)C(O)N(c2ccc(Cl)cc2)C(=O)N1c1ccc(Cl)cc1` (single isomer, unassigned) [Compound 149-2], the concentration for half-maximal inhibition (IC50) is less than 1000 nM.
Same read-out and setting: the same measure for `CC(C)c1ccc(N2C(=O)N(c3ccc(C(C)C)cc3)C(O)(c3ccccc3)C2=O)cc1` (centres unmarked) [Compound 145, 5-hydroxy-1,3-bis(4-isopropylphenyl)-5-phenylimidazolidine-2,4-dione]: 50000 to 100000 nM.
Turning to `CC(C)C1(c2cccc(C#N)c2)C(O)N(c2ccc(Br)cc2)C(=O)N1c1ccc(Br)cc1` (centres unmarked) [Example 232, 3-(1,3-bis(4-bromophenyl)-5-hydroxy-4-isopropyl-2-oxoimidazolidin-4-yl)benzonitrile], the IC50 was in the range of 1000 to 10000 nM.
Still for that read-out and setting: the same measure for `C[C@]1(C(F)(F)F)N(c2ccc(Cl)cc2)C(=O)N(c2ccc(Cl)cc2)C1(O)c1cccc(C#N)c1` (single isomer, unassigned) [Example 177-1]: less than 1000 nM.
With `CC[C@@H]1N(c2ccc(Cl)cc2)C(=O)N(c2ccc(Cl)cc2)C1(O)c1cccc(OC(F)F)c1` (stereo partly drawn) [Compound 118-1, (5S)-1,3-bis(4-chlorophenyl)-4-(3-(difluoromethoxy)phenyl)-5-ethyl-4-hydroxyimidazolidin-2-one], the concentration for half-maximal inhibition (IC50) is less than 1000 nM.
`CC(=O)c1cccc(C2(O)[C@@H](C)N(c3ccc(Cl)cc3)C(=O)N2c2ccc(Cl)cc2)c1` (stereo partly drawn) [Compound 136-2, (5R)-4-(3-acetylphenyl)-1,3-bis(4-chlorophenyl)-4-hydroxy-5-methylimidazolidin-2-one]: the IC50 was less than 1000 nM.
Consider `CCCCC1(O)CN(c2ccc(Br)cc2)C(=O)N1c1ccc(Br)cc1` (centres unmarked) [Example 6, 1,3-bis(4-bromophenyl)-4-butyl-4-hydroxyimidazolidin-2-one], for which the 50% inhibitory concentration (IC50) was more than 50000 nM.
On to `O=C1N(c2ccc(Br)cc2)C(=O)C(O)(c2ccc[nH]2)N1c1ccc(Br)cc1` (centres unmarked) [Example 211, 1,3-bis(4-bromophenyl)-5-hydroxy-5-(1H-pyrrol-2-yl)imidazolidine-2,4-dione], for which the half-maximal inhibitory concentration (IC50) lay in the range of 10000 to 50000 nM.
The same measure, in the same setting: for `C[C@@H]1N(c2ccccc2)C(=O)N(c2ccccc2)C1(O)c1cccc(OC(F)(F)F)c1` (stereo partly drawn) [Example 230-1, (5S)-4-hydroxy-5-methyl-1,3-diphenyl-4-(3-(trifluoromethoxy)phenyl)imidazolidin-2-one] the value was 1000 to 10000 nM.
For `CC1N(c2ccc(Br)cc2)C(=O)N(c2ccc(Br)cc2)C1(O)c1cccc(Cl)c1` (centres unmarked) [Compound 73, 1,3-bis(4-bromophenyl)-4-(3-chlorophenyl)-4-hydroxy-5-methylimidazolidin-2-one], the IC50 was less than 1000 nM.
As for `CCC[C@H]1N(c2ccc(Cl)cc2)C(=O)N(c2ccc(Cl)cc2)C1(O)c1cccc(C#N)c1` (stereo partly drawn) [Compound 101-2, 3-((5R)-1,3-bis(4-chlorophenyl)-4-hydroxy-2-oxo-5-propylimidazolidin-4-yl)benzonitrile], the IC50 is less than 1000 nM.
`O=C1N(c2ccc(Cl)cc2)CC(O)(c2cccc(C3CC3)c2)N1c1ccc(Cl)cc1` (centres unmarked) [Compound 78, 1,3-bis(4-chlorophenyl)-4-(3-cyclopropylphenyl)-4-hydroxyimidazolidin-2-one]: the IC50 was 1000 to 10000 nM.
Regarding `N#Cc1cccc(C2(O)C(CC3CC3)N(c3ccc(Cl)cc3)C(=O)N2c2ccc(Cl)cc2)c1` (centres unmarked) [Compound 132, 3-(1,3-bis(4-chlorophenyl)-5-(cyclopropylmethyl)-4-hydroxy-2-oxoimidazolidin-4-yl)benzonitrile], the IC50 is less than 1000 nM.
On to `O=C1N(c2ccc(Cl)cc2Cl)CC(O)(c2ccccc2)N1c1ccc(Cl)cc1Cl` (centres unmarked) [Example 57, 1,3-bis(2,4-dichlorophenyl)-4-hydroxy-4-phenylimidazolidin-2-one], for which the IC50 was more than 50000 nM.
Still for that read-out and setting: for `CCCC[C@@H]1N(c2ccc(Cl)cc2)C(=O)N(c2ccc(Cl)cc2)C1(O)c1cccc(C#N)c1` (stereo partly drawn) [Compound 116-1, 3-((5S)-5-butyl-1,3-bis(4-chlorophenyl)-4-hydroxy-2-oxoimidazolidin-4-yl)benzonitrile] the value was less than 1000 nM.
Regarding `CN(C)C[C@@H]1N(c2ccc(Cl)cc2)C(=O)N(c2ccc(Cl)cc2)C1(O)c1cccc(OC(F)(F)F)c1` (single isomer, unassigned) [Example 166-1], the IC50 was less than 1000 nM.
The same measure, in the same setting: for `COc1ccc(N2C(=O)N(c3ccc(OC)cc3)C(O)(c3cccc(OC(F)(F)F)c3)C2(C)C)cc1` (centres unmarked) [Compound 241, 4-hydroxy-1,3-bis(4-methoxyphenyl)-5,5-dimethyl-4-(3-(trifluoromethoxy)phenyl)imidazolidin-2-one] the value was less than 1000 nM; for `CC(O)c1cccc(C2(O)C(C)N(c3ccc(Cl)cc3)C(=O)N2c2ccc(Cl)cc2)c1` (centres unmarked) [Compound 137, 1,3-bis(4-chlorophenyl)-4-hydroxy-4-(3-(1-hydroxyethyl)phenyl)-5-methylimidazolidin-2-one], less than 1000 nM.
As to `O=C1N(c2ccc(Cl)cc2)[C@H]([C@H]2CCCO2)C(O)(c2cccc(Cl)c2)N1c1ccc(Cl)cc1` (single isomer, unassigned) [Compound 117-2], the IC50 is 1000 to 10000 nM.
On to `O=C1N(c2ccc(OC3CCCC3)cc2)C(=O)C(O)(c2ccccc2)N1c1ccc(OC2CCCC2)cc1` (centres unmarked) [Example 168, 1,3-bis(4-(cyclopentyloxy)phenyl)-5-hydroxy-5-phenylimidazolidine-2,4-dione], for which the IC50 is more than 50000 nM.
`CC(=O)c1cccc(C2(O)[C@H](C)N(c3ccc(Cl)cc3)C(=O)N2c2ccc(Cl)cc2)c1` (single isomer, unassigned) [Compound 136-1]: the IC50 fell in the range of 1000 to 10000 nM.
The same measure, in the same setting: the same measure for `C[C@@]1(c2cccc(C(F)(F)F)c2)C(O)N(c2ccc(Br)cc2)C(=O)N1c1ccc(Br)cc1` (stereo partly drawn) [Example 219-2, (4R)-1,3-bis(4-bromophenyl)-5-hydroxy-4-methyl-4-(3-(trifluoromethyl)phenyl)imidazolidin-2-one]: less than 1000 nM.
On the same count and under the same terms, the same measure for `COC[C@@H]1N(c2ccc(Cl)cc2)C(=O)N(c2ccc(Cl)cc2)C1(O)c1cccc(C(F)(F)F)c1` (stereo partly drawn) [Compound 92-1, (5S)-1,3-bis(4-chlorophenyl)-4-hydroxy-5-(methoxymethyl)-4-(3-(trifluoromethyl)phenyl)imidazolidin-2-one]: less than 1000 nM; for `O=C1N(c2ccc(Br)cc2)CC(O)(c2ccc(Cl)s2)N1c1ccc(Br)cc1` (centres unmarked) [Example 5, 1,3-bis(4-bromophenyl)-4-(5-chlorothiophen-2-yl)-4-hydroxyimidazolidin-2-one]: 10000 to 50000 nM; for `CC[C@@]1(C)N(c2ccc(Cl)cc2)C(=O)N(c2ccc(Cl)cc2)C1(O)c1cccc(C#N)c1` (single isomer, unassigned) [Example 185-1]: 10000 to 50000 nM.
Take `O=C1N(c2ccc(Cl)cc2)C2(CC2)C(O)(c2cccc(Cl)c2)N1c1ccc(Cl)cc1` (centres unmarked) [Example 228, 7-(3-chlorophenyl)-4,6-bis(4-chlorophenyl)-7-hydroxy-4,6-diazaspiro[24]heptan-5-one]: the IC50 was less than 1000 nM.
Take `O=C1N(c2ccc(Br)cc2)CC(O)(c2ccccc2)N1c1ccc(Cl)cc1` (centres unmarked) [Example 43, 1-(4-bromophenyl)-3-(4-chlorophenyl)-4-hydroxy-4-phenylimidazolidin-2-one]: the IC50 lay in the range of 1000 to 10000 nM.
As for `CC[C@@]1(C)N(c2ccc(Cl)cc2)C(=O)N(c2ccc(Cl)cc2)C1(O)c1cccc(OC(F)(F)F)c1` (single isomer, unassigned) [Example 163-1], the half-maximal inhibitory concentration (IC50) fell in the range of 1000 to 10000 nM.
Turning to `CCc1c(-c2cccc(C#N)c2)n(-c2ccc(Cl)cc2)c(=O)n1-c1ccc(Cl)cc1` [Compound 258, 3-(1,3-bis(4-chlorophenyl)-5-ethyl-2-oxo-2,3-dihydro-1H-imidazol-4-yl)benzonitrile], the IC50 was less than 1000 nM.
Regarding `O=C1N(c2ccc(Br)cc2)CC(O)(c2ccccn2)N1c1ccc(Br)cc1` (centres unmarked) [Example 9, 1,3-bis(4-bromophenyl)-4-hydroxy-4-(pyridin-2-yl)imidazolidin-2-one], the IC50 was more than 50000 nM.
The same measure, in the same setting: the same measure for `C[C@]1(c2ccccc2)N(c2ccc(Cl)cc2)C(=O)N(c2ccc(Cl)cc2)[C@]1(O)c1ccccc1` [Compound 121-3, (4S,5R)-1,3-bis(4-chlorophenyl)-4-hydroxy-5-methyl-4,5-diphenylimidazolidin-2-one]: more than 50000 nM; for `CCCc1c(-c2cccc(OC(F)(F)F)c2)n(-c2ccc(Cl)cc2)c(=O)n1-c1ccc(Cl)cc1` [Compound 245, 1,3-bis(4-chlorophenyl)-4-propyl-5-(3-(trifluoromethoxy)phenyl)-1,3-dihydro-2H-imidazol-2-one]: less than 1000 nM.
